From the NIST ThermoML archive (doi:10.1016/j.jct.2019.03.011)

Test: wn = mass fraction of the nth substance listed
Conditions: 101 kPa, Liquid; for viscosity: Falling or rolling sphere viscometry; for speed of sound: Frequency=3 MHz, Single path-length method; for mass density: Vibrating tube method

Cl.NNC(N)=O [semicarbazide hydrochloride] + O
Conditions	mass density, w1 = 0.01 [kg/m3]	mass density, w1 = 0.02 [kg/m3]	speed of sound, w1 = 0.01 [m/s]	speed of sound, w1 = 0.02 [m/s]	viscosity, w1 = 0.01 [mPa·s]	viscosity, w1 = 0.02 [mPa·s]
293.15 K	1002.51	1006.71	1490	1495.8	1.016	1.031
298.15 K	1001.29	1005.43	1503	1509	0.9018	0.9134
303.15 K	999.819	1003.99	1515.1	1520.9	0.8053	0.8152
308.15 K	998.185	1002.31	1525.6	1531.2	0.7251	0.733
313.15 K	996.304	1000.34	1534.3	1540	0.6562	0.6646
318.15 K	994.429	998.472	1540.7	1546.7	0.6021	0.6062
